Test results reported in patent publication US20250114359A1, “METHODS FOR […] G[…]/OR HEXOKINASE” (UNIVERSITY OF SOUTH CAROLINA, priority 2023, published 2025).

Biological target: Trypanosoma cruzi glucokinase (TcGlcK) (Trypanosoma cruzi, UniProt Q4E4E1)
Test: Determination of Ki values by type 1 and type 2 Dixon plots;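 also: compounds supplied as 10 mM DMSO stocks (100 µL format), with a non-inhibitory compound run alongside for comparison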
Type: biochemical
Method: The inhibition constant can be determined by development of a Dixon plot (either type 1 or type 2) according to standard practice, and as utilized herein refers to the inhibitor concentration at which half maximum inhibition is determined for a 100 μL/10 mM format in DMSO.
Determination of the Ki values for inhibitors was performed by creation of both type 1 and type 2 Dixon plots. The format included 100 μL/10 mM in DMSO.

Chain of Trypanosoma cruzi glucokinase (TcGlcK) (Q4E4E1 1-376): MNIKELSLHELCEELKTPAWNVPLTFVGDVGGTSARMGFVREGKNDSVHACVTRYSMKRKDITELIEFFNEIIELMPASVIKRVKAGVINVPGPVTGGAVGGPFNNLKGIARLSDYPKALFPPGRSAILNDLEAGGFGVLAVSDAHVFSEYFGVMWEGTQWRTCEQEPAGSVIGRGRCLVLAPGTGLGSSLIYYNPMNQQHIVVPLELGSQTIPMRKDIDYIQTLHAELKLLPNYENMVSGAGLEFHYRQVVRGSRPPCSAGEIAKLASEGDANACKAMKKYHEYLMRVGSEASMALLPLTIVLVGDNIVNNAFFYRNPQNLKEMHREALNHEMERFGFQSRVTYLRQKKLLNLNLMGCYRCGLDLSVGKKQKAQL

Row | SMILES | Ki [µM]
1 | Cc1cc(-c2ccc(N/C=C3\C(=O)C(O)=C(C(C)C)c4cc(C)c(-c5c(C)cc6c(c5O)/C(=C/Nc5ccc(-c7ccc(N)c(C)c7)cc5C)C(=O)C(O)=C6C(C)C)c(O)c43)c(C)c2)ccc1N (atropisomer, axis not shown) [Inhibitor 17] | 532
2 | Cc1cc2c(c(O)c1-c1c(C)cc3c(c1O)/C(=C/Nc1ccccc1C(=O)O)C(=O)C(O)=C3C(C)C)/C(=C/Nc1ccccc1C(=O)O)C(=O)C(O)=C2C(C)C (atropisomer, axis not shown) [Inhibitor 15] | 1.2
3 | Cc1cc2c(c(O)c1-c1c(C)cc3c(c1O)C(C=C1C(=O)NC(=O)NC1=O)C(=O)C(O)=C3C(C)C)C(C=C1C(=O)NC(=O)NC1=O)C(=O)C(O)=C2C(C)C (stereo not shown) [Inhibitor 32] | 10.6
4 | Cc1cc2c(C(C)C)c(O)c(O)c(/C=N/c3ccc(C(O)C(O)CO)cc3)c2c(O)c1-c1c(C)cc2c(C(C)C)c(O)c(O)c(/C=N/c3ccc(C(O)C(O)CO)cc3)c2c1O (stereo not shown) [Inhibitor 48] | 274
5 | Cc1cc2c(c(O)c1-c1c(C)cc3c(c1O)/C(=C/Nc1cccc(C(=C4C=CC(=N)C=C4)c4ccc(N)cc4)c1)C(=O)C(O)=C3C(C)C)/C(=C/Nc1cccc(C(=C3C=CC(=N)C=C3)c3ccc(N)cc3)c1)C(=O)C(O)=C2C(C)C [Inhibitor 30] | 3.9
6 | Cc1ccc(OCC/N=C/c2c(O)c(O)c(C(C)C)c3cc(C)c(-c4c(C)cc5c(C(C)C)c(O)c(O)c(/C=N/CCOc6ccc(C)cc6)c5c4O)c(O)c23)cc1 [Inhibitor 10] | 3.4
7 | COc1cc(NS(=O)(=O)c2ccc(N/C=C3\C(=O)C(O)=C(C(C)C)c4cc(C)c(-c5c(C)cc6c(c5O)/C(=C/Nc5ccc(S(=O)(=O)Nc7cc(OC)nc(OC)n7)cc5)C(=O)C(O)=C6C(C)C)c(O)c43)cc2)nc(OC)n1 (atropisomer, axis not shown) [Inhibitor 20] | 11.2
8 | Cc1cc2c(C(C)C)c(O)c(O)c(/C=N/NC(=O)C(C)C)c2c(O)c1-c1c(C)cc2c(C(C)C)c(O)c(O)c(/C=N/NC(=O)C(C)C)c2c1O [Inhibitor 6] | 30.2
9 | COc1ccc(CC(=O)N/N=C/c2c(O)c(O)c(C(C)C)c3cc(C)c(-c4c(C)cc5c(C(C)C)c(O)c(O)c(/C=N/NC(=O)Cc6ccc(OC)c(OC)c6)c5c4O)c(O)c23)cc1OC (atropisomer, axis not shown) [Inhibitor 55] | 41.6
10 | Cc1cc2c(C(C)C)c(O)c(O)c(/C=N/CC34CC5CC(C)(CC(C)(C5)C3)C4)c2c(O)c1-c1c(C)cc2c(C(C)C)c(O)c(O)c(/C=N/C34CC5CC(C)(CC(C)(C5)C3)C4)c2c1O [Inhibitor 50] | 51.3
11 | Cc1cc2c(c(O)c1-c1c(C)cc3c(c1O)/C(=C/Nc1ccc(S(=O)(=O)Nc4nccs4)cc1)C(=O)C(O)=C3C(C)C)/C(=C/Nc1ccc(S(=O)(=O)Nc3nccs3)cc1)C(=O)C(O)=C2C(C)C (atropisomer, axis not shown) [Inhibitor 23] | 32.3
12 | Cc1cc(C)cc(OCC(=O)C/N=C/c2c(O)c(O)c(C(C)C)c3cc(C)c(-c4c(C)cc5c(C(C)C)c(O)c(O)c(/C=N/NC(=O)COc6cc(C)cc(C)c6)c5c4O)c(O)c23)c1 [Inhibitor 3] | 60.4
13 | COc1ccc(OC)c(/N=C/c2c(O)c(O)c(C(C)C)c3cc(C)c(-c4c(C)cc5c(C(C)C)c(O)c(O)c(/C=N/c6cc(OC)ccc6OC)c5c4O)c(O)c23)c1 [Inhibitor 11] | 30.5
14 | Cc1cc2c(c(O)c1-c1c(C)cc3c(c1O)/C(=C/Nc1ccc(N=Nc4ccccc4)cc1)C(=O)C(O)=C3C(C)C)/C(=C/Nc1ccc(N=Nc3ccccc3)cc1)C(=O)C(O)=C2C(C)C (atropisomer, axis not shown) [Inhibitor 18] | 45.5
15 | Cc1cc2c(c(O)c1-c1c(C)cc3c(c1O)/C(=C\Nc1c(O)cc(S(=O)(=O)O)c4ccccc14)C(=O)C(O)=C3C(C)C)/C(=C/Nc1c(O)cc(S(=O)(=O)O)c3ccccc13)C(=O)C(O)=C2C(C)C [Inhibitor 29] | 9.6
16 | Cc1cc2c(c(O)c1-c1c(C)cc3c(c1O)/C(=C/NCSN)C(=O)C(O)=C3C(C)C)/C(=C/NCSN)C(=O)C(O)=C2C(C)C (atropisomer, axis not shown) [Inhibitor 85] | 30.1

Row | SMILES | Ki [µM]
17 | Cc1cc2c(c(O)c1-c1c(C)cc3c(c1O)/C(=C/Nc1ccccc1O)C(=O)C(O)=C3C(C)C)/C(=C/Nc1ccccc1O)C(=O)C(O)=C2C(C)C (atropisomer, axis not shown) [Inhibitor 14] | 468
18 | Cc1cc2c(C(C)C)c(O)c(O)c(/C=N/CCOc3ccc(C4CCCCC4)cc3)c2c(O)c1-c1c(C)cc2c(C(C)C)c(O)c(O)c(/C=N/CCOc3ccc(C4CCCCC4)cc3)c2c1O (atropisomer, axis not shown) [Inhibitor 80] | 11.8
19 | Cc1ccc(O)c(/N=C/c2c(O)c(O)c(C(C)C)c3cc(C)c(-c4c(C)cc5c(C(C)C)c(O)c(O)c(/C=N/c6cc(C)ccc6O)c5c4O)c(O)c23)c1 (atropisomer, axis not shown) [Inhibitor 54] | 3.02
20 | Cc1cc(C=O)c(O)c(C=O)c1 [Inhibitor 44] | 99.1
21 | Cc1cc2c(c(O)c1-c1c(C)cc3c(c1O)/C(=C/NNC(=O)c1ccncc1)C(=O)C(O)=C3C(C)C)/C(=C/NNC(=O)c1ccncc1)C(=O)C(O)=C2C(C)C (atropisomer, axis not shown) [Inhibitor 26] | 213
22 | Cc1cc2c(C(C)C)c(O)c(O)c(/C=N/Nc3cccc(Cl)n3)c2c(O)c1-c1c(C)cc2c(C(C)C)c(O)c(O)c(/C=N/Nc3cccc(Cl)n3)c2c1O [Inhibitor 9] | 11
23 | Cc1cc2c(c(O)c1-c1c(C)cc3c(c1O)/C(=C/NCCO)C(=O)C(O)=C3C(C)C)/C(=C/NCCO)C(=O)C(O)=C2C(C)C (atropisomer, axis not shown) [Inhibitor 13] | 422
24 | Cc1cc(C(=O)N/N=C/c2c(O)c(O)c(C(C)C)c3cc(C)c(-c4c(C)cc5c(C(C)C)c(O)c(O)c(/C=N/NC(=O)c6cc(C)[nH]n6)c5c4O)c(O)c23)n[nH]1 [Inhibitor 4] | 19.1
25 | Cc1cc2c(C(C)C)c(O)c(O)c(/C=N/Nc3nc4ccccc4[nH]c3=O)c2c(O)c1-c1c(C)cc2c(C(C)C)c(O)c(O)c(/C=N/Nc3nc4ccccc4[nH]c3=O)c2c1O [Inhibitor 7] | 3.83
26 | Cc1cc2c(c(O)c1-c1c(C)cc3c(c1O)/C(=C/Nc1c(C)n(C)n(-c4ccccc4)c1=O)C(=O)C(O)=C3C(C)C)/C(=C/Nc1c(C)n(C)n(-c3ccccc3)c1=O)C(=O)C(O)=C2C(C)C (atropisomer, axis not shown) [Inhibitor 21] | 9.5
27 | COc1ccc2ccccc2c1/C=C1\SC(=S)NC1=O [Inhibitor 69] | 12.9
28 | Cc1cc2c(C(C)C)c(O)c(O)c(/C=N/Nc3nnnn3-c3ccccc3)c2c(O)c1-c1c(C)cc2c(C(C)C)c(O)c(O)c(/C=N/Nc3nnnn3-c3ccccc3)c2c1O (atropisomer, axis not shown) [Inhibitor 60] | 53.3
29 | Cc1cc2c(c(O)c1-c1c(C)cc3c(c1O)/C(=C/NCc1cccnc1)C(=O)C(O)=C3C(C)C)/C(=C/NCc1cccnc1)C(=O)C(O)=C2C(C)C (atropisomer, axis not shown) [Inhibitor 74] | 123
30 | CC(=O)c1ccc(N/C=C2\C(=O)C(O)=C(C(C)C)c3cc(C)c(-c4c(C)cc5c(c4O)/C(=C/Nc4ccc(C(C)=O)cc4)C(=O)C(O)=C5C(C)C)c(O)c32)cc1 (atropisomer, axis not shown) [Inhibitor 19] | 10.4
31 | Cc1cc2c(C(C)C)c(O)c(O)c(/C=N/c3ccc4c(c3)CCN4S(C)(=O)=O)c2c(O)c1-c1c(C)cc2c(C(C)C)c(O)c(O)c(/C=N/c3ccc4c(c3)CCN4S(C)(=O)=O)c2c1O (atropisomer, axis not shown) [Inhibitor 51] | 0.8
